The record followed here is publication PMC10049354, “Anti-Inflammatory Effects and Photo- and Neuro-Protective Properties of BIO203, a New Amide Conjugate of Norbixin, in Development for the Treatment of Age-Related Macular Degeneration (AMD)” (International Journal of Molecular Sciences, 2023).

One data set concerns RXR. Briefly: RXR transactivation assay induced by A2E. The format is cell-based, pig. The note with it: compound 20 μM; A2E 20 μM; porcine RPE cells. The procedure: (§1) Transactivation assays were performed as previously described. Briefly, RPE cells were plated in DMEM 2% FCS at a density of 6 × 10^4 cells/cm^2. The next day transfections using the Cignal Reporter Assay Kits for PPAR, RXR, AP-1, and NF-κB were performed with Lipofectamine and Plus Reagent in serum-free medium. Three hours after the transfection, A2E and/or BIO203, both at 20 μM, were added to the culture medium for 24 h. Luciferase activity was measured using the Dual-Luciferase Reporter Assay System and with a luminometer (Infinite M1000 from Tecan, Mannedorf, Switzerland). At least 3 independent transfections were performed in triplicate for each condition.

In a further data set the test system is NF-κB. As to the kind of experiment: NF-κB transactivation assay induced by A2E. The format is cell-based, pig. The note with it: compound 20 μM; A2E 20 μM; p < 0.05. The procedure:
as §1

Data set [1] can be described thus: BIO203 in plasma and eyes of mice after 6 months of BIO203-containing pellets. The format is in vivo. As for the experimental part:
A custom rodent diet was formulated and irradiated (25 kGy) by Envigo RMS SARL (Gannat, France). Low dose (LD)-BIO203 (50 μg/g) and high dose (HD)-BIO203 (500 μg/g) were incorporated into Teklad Custom Research Diet 2016© pellets. The pellets were stored at −20 °C until use and were administered ad libitum as the standard Teklad Global Rodent Diet 2016© used for the control group. The concentration of BIO203 in the customized pellets at the end of each batch was determined by HPLC MS/MS. The mean concentration was 46 μg/g ± 3.5 μg/g of pellet for the LD and 464 μg/g ± 24.3 μg/g of pellet for the HD. We calculated that in the LD group, male mice weighing 31.63 g after 2 months of complementation consumed 4.16 g of pellets, and in the HD group, male mice weighing 34.11 g after 2 months of complementation consumed 4.11 g of pellets every day, which correspond to a daily dose of 6.04 ± 0.46 mg/kg for the LD-BIO203 pellets and 55.91 ± 2.93 mg/kg for the HD-BIO203 pellets.
To test the preventive/curative action of oral administration of BIO203 against retinal neurodegeneration, a total of 27 Pigmented Abca4^−/− Rdh8^−/− mice carrying the Rpe65-Leu450 mutation and the rd8 mutation in the Crb1 gene from Case Western Reserve University of eleven to twelve months of age were used. Three groups of 9 males received control chow (Teklad Custom Research Diet 2016© pellets) or chow containing LD-BIO203 or HD-BIO203 orally for 6 months. After 6 months of complementation, ERG was measured in both eyes. In the control group, two mice died during the period of complementation and one mouse during ERG measurement. In the HD-BIO203 group, one mouse died before the end of complementation, and 3 mice died just after anesthesia. […] In each group, half of the eyes were removed for A2E and BIO203 measurements, and half of the eyes were used for histological analyses and photoreceptor layer quantification.
Analysis was performed on an LC 1260 System coupled with Mass Spectrometer QQQ-6420 with DAD (Agilent Technologies). […] BIO203 and its isomers were monitored by a mass spectrometer, in positive MRM mode, with the following transitions, respectively, 381.1 -> 144.9 and 478.1 -> 362.9. For quantification of BIO201 and BIO203, calibration curves were prepared under the same conditions as the sample matrix, with various amounts of BIO201 or BIO203 (25 to 10,000 ng/mL in plasma and 5 to 500 ng/mL for eyes).
For determination of norbixin or BIO203 concentrations in plasma, aliquots of plasma samples (25 μL) and internal standard (retinoic acid at 10 µg/mL) were distributed in a 96-well microtiter plate and precipitated with methanol (100 μL). […] Under these conditions, with 5 μL injections, the limit of quantification (LOQ) was 25 ng/mL (0.33 pmol for BIO201 and 0.26 pmol for BIO203). […]

In the case of `COC1CCCN(C(=O)/C=C/C(C)=C/C=C/C(C)=C/C=C/C=C(C)/C=C/C=C(C)\C=C\C(=O)O)C1` (stereo not drawn) [BIO203], the “inhibition of RXR transactivation induced by A2E” value with RXR was “did not inhibit”. For the same compound, the “change of NF-κB transactivation induced by A2E” value with NF-κB is −69.4%. In data set [1] (HD pellets (500 μg/g)), the “BIO203 in the eyes” value was “not detected” and the “BIO203 in the plasma” value is recorded as “detected”. Also, in data set [1] (LD pellets (50 μg/g)), the “BIO203 in the eyes” value is given as “not detected” and the “BIO203 in the plasma” value was “absence of BIO203 plasmatic exposure”.
